Source: EP4789666A1, “RNA M6A REGULATOR COMPOSITION, PREPARATION METHOD THEREFOR, AND USE THEREOF” (SHANGHAI MERNA THERAPEUTICS CO. LTD, priority 2023, dated 2025)

How the values were obtained:
[1] = system: rat models with hand-foot skin reaction; assay: Rat models with hand-foot skin reaction, topical ointment (incidence rate, histology, immunohistochemistry); type: in vivo, SD rats; conditions: for Incidence rate, left paw / Incidence rate, right paw: modeling drug alone by gavage once daily 30 days (sorafenib 100, erlotinib 70, afatinib 50, osimertinib 60 mg/kg), no compound in ointment; for successful modeling rates for the hand-foot skin reaction: once daily by gavage at 100, 70, 50 and 60 mg/kg (sorafenib, erlotinib, afatinib, osimertinib), SD rats
Method: After adaptive feeding for one week, SD rats (with a body weight of approximately 200 g) were randomly divided into groups with balanced body weight, with 12 rats in each group. Modeling drugs (including sorafenib, erlotinib, afatinib, and osimertinib) were respectively dissolved in a solution containing 5% of DMSO, 45% of PEG400, and 50% of H2O, and the modeling drugs were diluted to required concentrations and then administered once daily by gavage at doses shown in Table 3. After administration by gavage for 1 hour, 0.05 g of ointments containing different mass proportions of test compounds were evenly applied to left paws of the rats, a blank matrix ointment was applied to right paws of the rats to serve as a self-control, and no ointment was applied to the rats in a blank control group. After drug application, four limbs were continuously immobilized for 2 hours, then wiped with clean water to remove the residual drugs, removed from immobilization, and restored to free movement. The modeling drugs, the blank matrix ointment, and the ointments containing the test compounds were all administered once daily. After continuous administration for 30 days, the rats were euthanized, and paw plantar skin tissues were collected, fixed in 10% neutral formalin, […]. The ointments for the test compounds were prepared by mixing the compounds, white beeswax, white petrolatum, and light liquid paraffin in specific ratios (weight ratios of 3 ointments were respectively 1:18:58:23, 3:18:57:22, and 10:20:40:30). The blank matrix ointment was prepared by mixing white beeswax, white petrolatum, and light liquid paraffin in a specific ratio (weight ratio of 18:60:22).
Tissue staining: After dewaxing and rehydration, the paw plantar skin tissue sections of the above rats were stained in a hematoxylin solution for several minutes, cleaned, and placed in 1% acid alcohol for soaking until the sections faded to light blue-red. After cleaning with running water for 5 minutes, the sections were stained with eosin for 2-3 minutes, cleaned to remove excess dyes, dehydrated, then permeabilized by adding xylene for several minutes, and sealed and fixed with a neutral resin. The stratum corneum was observed under an optical microscope, and the thickness of the epidermal stratum corneum was measured using Dmetrix software.
Immunohistochemical staining: After dewaxing and hydration, the paw plantar skin tissue sections of the above rats were incubated with 3% H2O2 at room temperature for 30 minutes and blocked with 10% goat serum for 30 minutes after antigen retrieval. A KRT1 antibody (Abcam, ab93652) and a Loricrin antibody (Abcam, ab183646) were added dropwise, the sections were incubated overnight at 4°C, and an HRP secondary antibody (ZSGB-BIO, PV-6001) and a DAB kit (ZSG-BIO, ZLI9017) were added for color development. The sections were re-stained with hematoxylin, cleaned, and sealed and fixed with a neutral resin, and the expression amounts of KRT1 and Loricrin were observed under an optical microscope.
An incidence rate calculation method involves a proportion of animals in each group meeting the above criteria for determining successful modeling, that is, incidence rate = (number of successfully modeled rats/total number of rats in the group)*100%. […]

[2] = system: chemotherapeutic drug-induced mouse model with hand-foot syndrome; assay: Chemotherapeutic drug-induced mouse model with hand-foot syndrome; type: in vivo, ICR mice; conditions: for degree of swelling of the hind limb toes of the mice: continuous oral administration of modeling drug for 14 days; for epidermal layer and stratum corneum in the skin tissues of the hind limb toes: modeling drug oral for 14 days versus normal control group, pathological staining; for skin of the hind limb toes of the mice (appearance): modeling for 14 days (capecitabine 200 mg/kg, docetaxel 25 mg/kg oral), versus normal control group
Text: After adaptive feeding for 7 days, SPF-grade ICR mice (male, 5-6 weeks old, with a body weight of approximately 35 g) were randomly divided into groups, including a blank control group (6 mice), a capecitabine modeling group (6 mice), a docetaxel modeling group (6 mice), a capecitabine + compound of formula (I) group (6 mice), a docetaxel + compound of formula (I) group (6 mice), a capecitabine + nicotinamide group (6 mice), and a docetaxel + nicotinamide group (6 mice). The groups were respectively administered corresponding modeling drugs by oral gavage (capecitabine at 200 mg/kg and docetaxel at 25 mg/kg) once daily; and the blank control group was administered an equivalent volume of normal saline. After administration with the chemotherapeutic drugs for 2 weeks, the ointments containing the compound of formula (I) (at a compound content of 3%) used in Example 10 were respectively applied topically in the groups, or nicotinamide was orally administered (100 mg/kg) once daily continuously for 16 days.
(§1) Measurement of the degree of swelling of toes: The degree of swelling of hind limb toes of the mice was measured using a toe swelling tester (KW-7C, Nanjing Calvin Biotechnology Co., Ltd.) before administration with the modeling drugs, after administration with the modeling drugs for 2 weeks, and before sacrifice, respectively. Before measurement, ankle joints of hind feet of the mice were marked at same positions before administration, after administration for 2 weeks, and before sacrifice. During measurement, water was properly located at the same level as the marked positions, and numerical values were recorded after becoming stable.
(§2) Pathological staining of skin tissues: Skin tissue samples were selected from hind limb toes of the mice and placed in 4% paraformaldehyde for fixation at room temperature for 4 hours. Then, the tissues were taken out and rinsed with running water for several hours. The samples were subjected to dehydration treatment with 70%, 80%, and 90% ethanol solutions, followed by treatment with a mixed solution of equal amounts of absolute alcohol and xylene for 15 minutes, and then permeabilized twice with a xylene solution for 15 minutes each time until the samples became transparent. The samples were placed in a mixture of half xylene and half paraffin for soaking for 15 minutes, and then, paraffin I and paraffin II were added for wax penetration for one hour, respectively. After embedding with paraffin, the samples were sectioned, baked, dewaxed, and hydrated. Then, the hydrated sections were placed in a hematoxylin solution (ZSGB-BIO, article No. 23041001) for staining for 3 minutes, and a differentiation solution of hydrochloric acid in ethanol was added for differentiation for 15 seconds. After rinsing with water, a Scott bluing solution (Servicebio, article No. 20230801) was added for bluing for 15 seconds. After rinsing with running water, the sections were stained with an eosin solution (Solarbio, article No. 33535) for 3 minutes, rinsed with running water, dehydrated, permeabilized, sealed, and inspected under a microscope.
(§3) Immunohistochemical staining: After baking, dewaxing, and hydration, paraffin sections of skin tissues of hind limb toes of the mice were subjected to antigen retrieval using a 0.2 M citric acid buffer solution (containing 1.534 g of citric acid, 3.1 g of sodium citrate, and 100 mL of distilled water, pH 4.7). Endogenous […] was removed using 3% hydrogen peroxide (Shandong Annjet High-Tech Disinfection Technology Co., Ltd., article No. 20290902), and the sections were incubated at room temperature for 10 minutes and then fully rinsed with a PBS buffer solution (containing 8 g of NaCl, 0.2 g of KCl, 1.44 g of Na2HPO4, and 1 M HCl, pH 7.4). The sections were permeabilized with 0.5% Triton-X-100 (AmyJet Scientific, article No. A-CSH436-100 mL), respectively permeabilized with mouse anti-IL-1β and rabbit IL-8 for 10 minutes, and not permeabilized with rabbit anti-IL-6. […]

[3] = system: kinase inhibitor-induced mouse model with hand-foot skin reaction; assay: Kinase inhibitor-induced mouse model with hand-foot skin reaction; type: in vivo, ICR mice; conditions: for degree of swelling of the hind limb toes of the mice: continuous oral administration of modeling drug for 14 days; for epidermal layer and stratum corneum in the skin tissues of the hind limb toes: modeling drug oral for 14 days versus normal control group, pathological staining; for skin of the hind limb toes of the mice (appearance): modeling for 14 days (sorafenib 100 mg/kg, osimertinib 10 mg/kg oral), versus normal control group; for cytokine IL-1β in the skin tissues of the hind limb toes: immunohistochemistry, p<0.05
Text: After adaptive feeding for 7 days, SPF-grade ICR mice (male, 5-6 weeks old, with a body weight of approximately 35 g) were randomly divided into groups, including a blank control group (6 mice), a sorafenib modeling group (6 mice), an osimertinib modeling group (6 mice), a sorafenib + compound of formula (I) group (6 mice), an osimertinib + compound of formula (I) group (6 mice), a sorafenib + nicotinamide group (6 mice), and an osimertinib + nicotinamide group (6 mice). The groups were respectively administered corresponding modeling drugs by oral gavage (sorafenib at 100 mg/kg and osimertinib at 10 mg/kg) once daily; and the blank control group was administered an equivalent volume of normal saline. After administration with the chemotherapeutic drugs for 2 weeks, the ointments containing the compound of formula (I) (at a compound content of 3%) used in Example 10 were respectively applied topically in the groups, or nicotinamide was orally administered (100 mg/kg) once daily continuously for 16 days.
as §1, §2, §3

[4] = immunohistochemical staining, successfully modeled rats
[5] = successfully modeled rats versus normal rats, FIG. 8
[6] = sorafenib and osimertinib models, 3% ointment topical or nicotinamide 100 mg/kg oral, once daily 16 days
[7] = capecitabine and docetaxel models, 3% ointment topical or nicotinamide 100 mg/kg oral, once daily 16 days

CN(C)C/C=C/C(=O)Nc1cc2c(Nc3ccc(F)c(Cl)c3)ncnc2cc1O[C@H]1CCOC1 [Afatinib, afatinib, reference compound]
KRT1 and Loricrin in tissues [1, 4]: significantly increased
Incidence rate, left paw [1]: 8/12 (66.7%)
Incidence rate, right paw [1]: 8/12 (66.7%)
successful modeling rates for the hand-foot skin reaction [1]: 66.7%
stratum corneum thickness of the paw plantar skin [1, 5]: significantly higher

CCCCCOC(=O)Nc1nc(=O)n([C@@H]2O[C@H](C)[C@@H](O)[C@H]2O)cc1F [Capecitabine, capecitabine]
cytokine IL-8 in the skin tissues of the hind limb toes ([2]; capecitabine oral for 14 days versus normal control group, immunohistochemistry, p<0.05): significantly increased
degree of swelling of the hind limb toes of the mice [2]: swelling of the hind limb toes of the mice was caused
epidermal layer and stratum corneum in the skin tissues of the hind limb toes [2]: significantly thickened
skin of the hind limb toes of the mice (appearance) [2]: obvious erythema, rhagades, and blisters

CC(=O)O[C@@]12CO[C@@H]1C[C@H](O)[C@@]1(C)C(=O)[C@H](O)C3=C(C)[C@@H](OC(=O)[C@H](O)[C@@H](NC(=O)OC(C)(C)C)c4ccccc4)C[C@@](O)([C@@H](OC(=O)c4ccccc4)[C@H]21)C3(C)C [Docetaxel, docetaxel]
degree of swelling of the hind limb toes of the mice [2]: swelling of the hind limb toes of the mice was caused
cytokine IL-6 in the skin tissues of the hind limb toes ([2]; docetaxel oral for 14 days versus normal control group, immunohistochemistry, p<0.05): significantly increased
epidermal layer and stratum corneum in the skin tissues of the hind limb toes [2]: significantly thickened
skin of the hind limb toes of the mice (appearance) [2]: obvious erythema, rhagades, and blisters

C#Cc1cccc(Nc2ncnc3cc(OCCOC)c(OCCOC)cc23)c1 [Erlotinib, erlotinib, reference compound]
KRT1 and Loricrin in tissues ([1]; rat, in vivo): significantly increased
stratum corneum thickness of the paw plantar skin ([1]; rat, in vivo): significantly higher

NC(=O)c1cccnc1 [Nicotinamide, nicotinamide]
expression level of cytokine IL-1β in the skin tissues of the hind limb toes ([3]; osimertinib model, 3% ointment topical or nicotinamide 100 mg/kg oral): didn't have a significant impact
swelling of the toes caused by the modeling drugs [3, 6]: it was not observed that oral administration of the nicotinamide at 100 mg/kg significantly alleviated the swelling
thickening of the epidermal layer and the stratum corneum in the skin tissues [3, 6]: didn't significantly alleviate
expression level of cytokine IL-1β in the skin tissues of the hind limb toes ([3]; sorafenib model, 3% ointment topical or nicotinamide 100 mg/kg oral): didn't have a significant impact
swelling of the toes caused by the modeling drugs [2, 7]: it was not observed that oral administration of the nicotinamide at 100 mg/kg significantly alleviated the swelling
thickening of the epidermal layer and the stratum corneum in the skin tissues [2, 7]: mildly alleviated
expression level of cytokine IL-8 in the skin tissues of the hind limb toes ([2]; capecitabine model, 3% ointment topical or nicotinamide 100 mg/kg oral): didn't have a significant impact
expression level of cytokine IL-6 in the skin tissues of the hind limb toes ([2]; docetaxel model, 3% ointment topical or nicotinamide 100 mg/kg oral): didn't have a significant impact

C=CC(=O)Nc1cc(Nc2nccc(-c3cn(C)c4ccccc34)n2)c(OC)cc1N(C)CCN(C)C [Osimertinib, osimertinib]
degree of swelling of the hind limb toes of the mice [3]: significant swelling
epidermal layer and stratum corneum in the skin tissues of the hind limb toes [3]: significantly thickened
skin of the hind limb toes of the mice (appearance) [3]: obvious erythema and rhagades
cytokine IL-1β in the skin tissues of the hind limb toes ([3]; osimertinib oral for 14 days versus normal control group): significantly increased
KRT1 and Loricrin in tissues ([1]; rat, in vivo): significantly increased
stratum corneum thickness of the paw plantar skin ([1]; rat, in vivo): significantly higher

CNC(=O)c1cc(Oc2ccc(NC(=O)Nc3ccc(Cl)c(C(F)(F)F)c3)cc2)ccn1 [Sorafenib, sorafenib, reference compound]
degree of swelling of the hind limb toes of the mice [3]: significant swelling
epidermal layer and stratum corneum in the skin tissues of the hind limb toes [3]: significantly thickened
skin of the hind limb toes of the mice (appearance) [3]: obvious erythema and rhagades
cytokine IL-1β in the skin tissues of the hind limb toes ([3]; sorafenib oral for 14 days versus normal control group): significantly increased
KRT1 and Loricrin in tissues [1, 4]: significantly increased
Incidence rate, left paw [1]: 9/12 (75%)
Incidence rate, right paw [1]: 9/12 (75%)
successful modeling rates for the hand-foot skin reaction [1]: 75%
stratum corneum thickness of the paw plantar skin [1, 5]: significantly higher
